# Values of other authors as cited in patent US6458376B1, “Nonaqueous fluorinated drug delivery suspensions” (Allergan, Inc., priority 1990, dated 2002).
# Columns and labels:
# [1] = for Boiling point: ambient pressure
# [2] = systemically administered
Structure (SMILES),Density @ 25° C. [1] [gms/mL],Kin. viscosity @ 25° C. [1] [cst],Specific heat @ 25° C. [1] [g-cal/gm],Surface tension @ 25° C. [1] [dynes/cm],Boiling point [1] [°C],elimination half life [2],elimination half-life (in words) [2]
"O [Water, reference compound]",1.000,1.00,1.00,72.0,–,–,–
"FC1(F)C(F)(F)C(F)(F)C2(F)C(F)(F)C(F)(F)C(F)(F)C(F)(F)C2(F)C1(F)F (centres unmarked) [PFD, Perfluoro(decahydronaphthalene)]",1.929,2.9,0.22,19.3,142,about 7 days,quite rapid
"FC1(F)C(F)(F)C(F)(F)C2(F)C(F)(C1(F)F)C(F)(F)C(F)(F)C1(F)C(F)(F)C(F)(F)C(F)(F)C(F)(F)C12F (centres unmarked) [PPP, perfluoroperhydrophenanthrene]",2.016,8.0,0.27,21.6,215,–,quite rapid
